Test results: patent publication US7906551B2 (Rottapharm S.p.A., priority 2006, dated 2011)
Where two headings read alike, the source gives them in different places. Blank lines part the entries; values can stand above or below the compound they belong to.

Assays:
[1] = test system: rat model of hyperalgesia induced by carragenine; assay: Paw pressure test, hyperalgesia induced by carragenine; assay type: in vivo; details: 20 mg/Kg
Protocol: (§1) Male Swiss albino mice (23-25 g) and Sprague Dawley or Wistar rats (150-200 g) were used. The animals were fed a standard laboratory diet and tap water ad libitum and kept at 23±1° C. with a 12 h light/dark cycle, light on at 7 a.m.
The nociceptive threshold in the rat was determined with an analgesimeter, according to the method described by Leighton et al, G. E.; Br. J. Pharmacol. 1988, 93, 553-560. Threshold pressure was measured before and 30, 60 and 120 min after treatment. An arbitrary cut-off value of 250 g was adopted. In order to induce an inflammatory process in the rat paw carrageenan (0.1 ml, 1%) was administered i.p. 4 h before test.

COX-2 = biological target: T1, COX-2 (Mus musculus, UniProt Q05769); assay: Assessment of COX-2 activity in LPS-stimulated J774 cells (PGE2 radioimmunoassay); assay type: cell-based, murine; details: for IC50: read-out: COX-2 IC50
T1 construct: lipopolysaccharide (LPS, 10 μg/mL) to induce COX-2; endogenous in cells; host or cells: J774 murine monocyte/macrophage cell line, LPS-stimulated
T1 sequence (Q05769 18-604): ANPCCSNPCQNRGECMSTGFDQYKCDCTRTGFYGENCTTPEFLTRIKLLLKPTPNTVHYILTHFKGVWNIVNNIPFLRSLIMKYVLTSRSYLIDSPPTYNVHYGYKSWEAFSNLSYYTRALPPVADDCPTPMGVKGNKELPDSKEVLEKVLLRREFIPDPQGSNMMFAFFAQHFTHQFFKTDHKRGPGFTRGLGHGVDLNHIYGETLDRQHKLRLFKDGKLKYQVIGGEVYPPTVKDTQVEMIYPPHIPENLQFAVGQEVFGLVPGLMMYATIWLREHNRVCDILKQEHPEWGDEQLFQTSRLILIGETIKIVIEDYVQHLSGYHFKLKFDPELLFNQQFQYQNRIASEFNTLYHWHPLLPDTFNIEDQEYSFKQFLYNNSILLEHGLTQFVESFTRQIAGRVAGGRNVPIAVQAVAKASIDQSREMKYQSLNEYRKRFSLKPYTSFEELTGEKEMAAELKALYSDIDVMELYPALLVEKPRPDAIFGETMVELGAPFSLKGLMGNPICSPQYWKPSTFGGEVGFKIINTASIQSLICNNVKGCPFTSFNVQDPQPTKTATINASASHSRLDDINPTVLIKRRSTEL
Protocol: Cells were stimulated for 24 h with E. coli lipopolysaccharide (LPS, 10 μg/mL) to induce COX-2, in the absence or presence of test compounds, at the concentrations previously reported. The supernatants were collected for the measurement of PGE2 by radioimmunoassay.
(§2) Analysis. Throughout the time the experiments lasted, triplicate wells were used for the various conditions of treatment. Results are expressed as the mean, for 3 experiments, of the % inhibition of PGE2 production by test compounds with respect to control samples. Data fit was obtained using the sigmoidal dose-response equation (variable slope). The IC50 were calculated by GraphPad Instat program (GraphPad software).

[2] = test system: rat model of edema induced by carragenine; assay: Carrageenan-induced paw edema; assay type: in vivo; details: 1 h, 20 mg/Kg, read-out: Edema inhibition 60 min, MPE
Protocol: as §1
Rats paw volumes were measured using a plethysmometer. Rats received the investigated compounds 4 hours after a 0.1-ml injection of 1.0% carrageenan in the right hind paw. Five hours after the injection of carrageenan (i.e. 1 hour after the administration of the investigated compound), the paw volume of the right hind paw was measured and compared with saline/carrageenan-treated controls. Results are reported as maximum percent effect (MPE), see below for detailed explanation.

COX-1 = biological target: T2, COX-1 (Mus musculus, UniProt P22437); assay: Assessment of COX-1 activity in J774 cells (arachidonic acid, PGE2 radioimmunoassay); assay type: cell-based, murine
T2 construct: endogenous in cells; host or cells: J774 murine monocyte/macrophage cell line
T2 sequence (P22437 27-602): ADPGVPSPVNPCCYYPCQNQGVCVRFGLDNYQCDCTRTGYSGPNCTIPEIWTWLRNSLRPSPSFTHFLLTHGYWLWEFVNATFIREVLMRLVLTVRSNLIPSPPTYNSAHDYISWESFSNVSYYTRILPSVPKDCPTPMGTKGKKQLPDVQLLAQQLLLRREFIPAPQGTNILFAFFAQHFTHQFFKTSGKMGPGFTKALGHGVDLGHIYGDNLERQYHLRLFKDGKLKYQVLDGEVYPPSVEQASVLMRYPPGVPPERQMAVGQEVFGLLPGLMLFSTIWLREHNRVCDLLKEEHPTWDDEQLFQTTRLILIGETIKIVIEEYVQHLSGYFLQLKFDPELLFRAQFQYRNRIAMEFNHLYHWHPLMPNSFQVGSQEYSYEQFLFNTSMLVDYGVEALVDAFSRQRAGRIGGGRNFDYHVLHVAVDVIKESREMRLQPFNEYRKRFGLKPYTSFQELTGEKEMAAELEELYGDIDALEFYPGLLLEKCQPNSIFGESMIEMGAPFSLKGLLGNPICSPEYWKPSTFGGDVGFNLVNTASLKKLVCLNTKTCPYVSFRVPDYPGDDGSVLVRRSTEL
Protocol: Stock solutions of the reference standard or of the test compounds were prepared in dimethyl sulphoxide, and an equivalent amount of dimethyl sulphoxide was included in control samples. At the end of the incubation the supernatants were collected for the measurement of PGE2 by radioimmunoassay.
as §2

[3] = 0.5 h, Table 10, 30 min, read-out: Analgesia 30 min MPE
[4] = 1 h, Table 10, 60 min, read-out: Analgesia 60 min MPE

SMILES: CCOC(=O)C(O)c1cc(-c2ccc(S(C)(=O)=O)cc2)n(-c2cccc(F)c2)c1C (racemic) [Example 9, Ethyl[2-hydroxy-2-[1-(3-fluoro)phenyl-2-methyl-5-(4-methylsulphonyl)phenyl-1H-pyrrol-3-yl]]acetate]
inhibition in vivo at 20 mg/kg ([1]; 0.5 h, Table 7, 30 min, read-out: Analgesia 30 min MPE): 80% | inhibition in vivo at 20 mg/kg ([1]; 1 h, Table 7, 60 min, read-out: Analgesia 60 min MPE): 40% | COX-1/COX-2 Selectivity Index (IC50 ratio) (COX-2; Table 6, Formula Ib): >310 | IC50 (COX-2; Table 6, Formula Ib): 320 nM | inhibition in vivo at 20 mg/kg ([2]; Table 7, 60 min): 40%

SMILES: CCOC(=O)C(O)c1cc(-c2ccc(S(C)(=O)=O)cc2)n(-c2cccc(F)c2)c1C (single isomer, unassigned; (+)) [Example 9a, (+)-Ethyl[2-hydroxy-2-[1-(3-fluoro)phenyl-2-methyl-5-(4-methylsulphonyl)phenyl-1H-pyrrol-3-yl]]acetate]
COX-1/COX-2 Selectivity Index (IC50 ratio) (COX-2; Table 6, Formula Ib): >1300

SMILES: CCOC(=O)C(O)c1cc(-c2ccc(S(C)(=O)=O)cc2)n(-c2cccc(F)c2)c1C (single isomer, unassigned; (-)) [Example 9b, (−)-Ethyl[2-hydroxy-2-[1-(3-fluoro)phenyl-2-methyl-5-(4-methylsulphonyl)phenyl-1H-pyrrol-3-yl]]acetate]
COX-1/COX-2 Selectivity Index (IC50 ratio) (COX-2; Table 6, Formula Ib): >650

SMILES: CNC(=O)Cc1cc(-c2ccc(S(C)(=O)=O)cc2)n(-c2ccc(C(F)(F)F)cc2)c1C [Example 17, N-Methyl-[2-methyl-5-(4-methylsulphonyl)phenyl-1-(4-trifluoromethyl)phenyl-1H-pyrrol-3-yl]acetamide]
IC50 (COX-2; Table 8, Formula I-c): 90 nM | IC50 (COX-1; Table 8, Formula I-c): > 100000 nM

SMILES: CCNC(=O)Cc1cc(-c2ccc(S(C)(=O)=O)cc2)n(-c2ccc(C(F)(F)F)cc2)c1C [Example 18, N-Ethyl-[2-methyl-5-(4-methylsulphonyl)phenyl-1-(4-trifluoromethyl)phenyl-1H-pyrrol-3-yl]acetamide]
IC50 (COX-2; Table 8, Formula I-c): 190 nM | IC50 (COX-1; Table 8, Formula I-c): > 100000 nM

SMILES: CCOCCc1cc(-c2ccc(S(C)(=O)=O)cc2)n(-c2ccccc2)c1C [Example 21, [3-(2-Ethoxyethyl)-2-methyl-5-(4-methylsulphonyl)phenyl-1-phenyl]-1H-pyrrole]
inhibition in vivo at 20 mg/kg [1, 3]: 96% | inhibition in vivo at 20 mg/kg [1, 4]: 72% | inhibition in vivo at 20 mg/kg ([2]; Table 10, 60 min): 45%

SMILES: CCCOCCc1cc(-c2ccc(S(C)(=O)=O)cc2)n(-c2ccccc2)c1C [Example 22, [2-Methyl-5-(4-methylsulphonyl)phenyl-1-phenyl-3-(2-n-propyloxyethyl)]-1H-pyrrole]
inhibition in vivo at 20 mg/kg [1, 3]: 88% | inhibition in vivo at 20 mg/kg [1, 4]: 94% | inhibition in vivo at 20 mg/kg ([2]; Table 10, 60 min): 43%

SMILES: COCCc1cc(-c2ccc(S(C)(=O)=O)cc2)n(-c2ccc(F)cc2)c1C [Example 23, [1-(4-Fluoro)phenyl-2-methyl-5-(4-methylsulphonyl)phenyl-3-(2-methoxyethyl)]-1H-pyrrole]
IC50 (COX-2; Table 9, Formula I-d): 18 nM | IC50 (COX-1; Table 9, Formula I-d): > 100000 nM

SMILES: CCCOCCc1cc(-c2ccc(S(C)(=O)=O)cc2)n(-c2ccc(F)cc2)c1C [Example 25, [1-(4-Fluoro)phenyl-2-methyl-5-(4-methylsulphonyl)phenyl-3-(2-n-propyloxyethyl)]-1H-pyrrole]
inhibition in vivo at 20 mg/kg [1, 3]: 53% | inhibition in vivo at 20 mg/kg [1, 4]: 70% | inhibition in vivo at 20 mg/kg ([2]; Table 10, 60 min): 41%

SMILES: COCCc1cc(-c2ccc(S(C)(=O)=O)cc2)n(-c2ccc(C(F)(F)F)cc2)c1C [Example 26, [2-Methyl-5-(4-methylsulphonyl)phenyl-3-(2-methoxyethyl)-1-(4-trifluoromethyl)phenyl]-1H-pyrrole]
IC50 (COX-2; Table 9, Formula I-d): 49 nM | IC50 (COX-1; Table 9, Formula I-d): > 100000 nM

More lines, now with the values ahead:

IC50 (COX-2; Table 8, Formula I-c): 350 nM | IC50 (COX-1; Table 8, Formula I-c): > 100000 nM
SMILES: CCNC(=O)Cc1cc(-c2ccc(S(C)(=O)=O)cc2)n(-c2ccccc2)c1C [Example 14, N-Ethyl-[2-methyl-5-(4-methylsulphonyl)phenyl-1-phenyl-1H-pyrrol-3-yl]acetamide]

IC50 (COX-2; Table 8, Formula I-c): 170 nM | IC50 (COX-1; Table 8, Formula I-c): > 100000 nM
SMILES: Cc1c(CC(=O)N(C)Cc2ccccc2)cc(-c2ccc(S(C)(=O)=O)cc2)n1-c1ccccc1 [Example 16, N-Benzyl-N-methyl-[2-methyl-5-(4-methylsulphonyl)phenyl-1-phenyl-1H-pyrrol-3-yl]acetamide]

IC50 (COX-2; Table 8, Formula I-c): 470 nM | IC50 (COX-1; Table 8, Formula I-c): > 100000 nM
SMILES: Cc1c(CC(=O)N(C)Cc2ccccc2)cc(-c2ccc(S(C)(=O)=O)cc2)n1-c1ccc(C(F)(F)F)cc1 [Example 19, N-Benzyl-N-methyl-[2-methyl-5-(4-methylsulphonyl)phenyl-1-(4-trifluoromethyl)phenyl-1H-pyrrol-3-yl]acetamide]

COX-2 % of inhibition at 1.10^−5 M (COX-2): 97% | IC50 (COX-1; Table 11, Formula I-e): > 100000 nM
SMILES: CCC(=O)OCCc1cc(-c2ccc(S(C)(=O)=O)cc2)n(-c2ccc(F)cc2)c1C [Example 29, 2-(1-(4-Fluorophenyl)-2-methyl-5-(4-methylsulphonyl)phenyl-1H-pyrrol-3-yl)ethyl propionate]

COX-2 % of inhibition at 1.10^−5 M (COX-2): 86% | IC50 (COX-1; Table 11, Formula I-e): > 100000 nM
SMILES: CCCC(=O)OCCc1cc(-c2ccc(S(C)(=O)=O)cc2)n(-c2ccc(F)cc2)c1C [Example 30, 2-(1-(4-fluorophenyl)-2-methyl-5-(4-methylsulphonyl)phenyl-1H-pyrrol-3-yl)ethyl butanoate]

COX-2 % of inhibition at 1.10^−5 M (COX-2): 76% | IC50 (COX-1; Table 11, Formula I-e): > 100000 nM
SMILES: Cc1c(CCOC(=O)c2ccccc2)cc(-c2ccc(S(C)(=O)=O)cc2)n1-c1ccc(F)cc1 [Example 31, 2-(1-(4-fluorophenyl)-2-methyl-5-(4-methylsulphonyl)phenyl-1H-pyrrol-3-yl)ethyl benzoate]

COX-2 % of inhibition at 1.10^−5 M (COX-2): 64% | IC50 (COX-1; Table 11, Formula I-e): > 100000 nM
SMILES: Cc1c(CCOC(=O)c2ccccc2F)cc(-c2ccc(S(C)(=O)=O)cc2)n1-c1ccc(F)cc1 [Example 32, 2-(1-(4-fluorophenyl)-2-methyl-5-(4-methylsulphonyl)phenyl-1H-pyrrol-3-yl)ethyl 2-fluorobenzoate]

COX-2 % of inhibition at 1.10^−5 M (COX-2): 69% | IC50 (COX-1; Table 11, Formula I-e): > 100000 nM
SMILES: Cc1c(CCOC(=O)c2ccc(F)cc2)cc(-c2ccc(S(C)(=O)=O)cc2)n1-c1ccc(F)cc1 [Example 33, 2-(1-(4-fluorophenyl)-2-methyl-5-(4-methylsulphonyl)phenyl-1H-pyrrol-3-yl)ethyl 4-fluorobenzoate]

COX-2 % of inhibition at 1.10^−5 M (COX-2): 69% | IC50 (COX-1; Table 11, Formula I-e): > 100000 nM
SMILES: Cc1c(CCOC(=O)c2cccs2)cc(-c2ccc(S(C)(=O)=O)cc2)n1-c1ccc(F)cc1 [Example 34, 2-(1-(4-fluorophenyl)-2-methyl-5-(4-methylsulphonyl)phenyl-1H-pyrrol-3-yl)ethyl 2-tiophencarboxylate]
